The assay has as its system CD2F1 mice, L1210 leukemia ip, survival T/C. Nature of the assay: NCI In Vivo Anticancer Drug Screen. Data for tumor model L1210 Leukemia (intraperitoneal) in CD2F1 (CDF1) mice. The following applies: higher = longer survival. The essentials: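 In this screen, transplantable tumors were grown in mice given either the compound or its vehicle. Results were expressed as the treated measurement relative to the control measurement.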

The mark [1] stands for this setting: endpoint: mean survival time, dose: 100.0 mg/kg/injection, schedule: Q04DX002 (ip), vehicle: saline with Tween-80.
[2] abbreviates: endpoint: mean survival time, dose: 200.0 mg/kg/injection, schedule: Q04DX002 (ip), vehicle: saline with Tween-80.
[3] abbreviates: endpoint: mean survival time, dose: 400.0 mg/kg/injection, schedule: Q04DX003 (ip), vehicle: saline with Tween-80.
Where [4] appears, read: endpoint: mean survival time, dose: 100.0 mg/kg/injection, schedule: Q01DX001 (ip), vehicle: Klucel (hydroxypropylcellulose) (HPC).
The mark [5] stands for this setting: endpoint: mean survival time, dose: 200.0 mg/kg/injection, schedule: Q01DX001 (ip), vehicle: Klucel (hydroxypropylcellulose) (HPC).
[6] abbreviates: endpoint: mean survival time, dose: 400.0 mg/kg/injection, schedule: Q01DX001 (ip), vehicle: Klucel (hydroxypropylcellulose) (HPC).
Where [7] appears, read: endpoint: mean survival time, dose: 100.0 mg/kg/injection, schedule: Q04DX003 (ip), vehicle: saline with Tween-80.
Setting [8] is: endpoint: mean survival time, dose: 200.0 mg/kg/injection, schedule: Q04DX003 (ip), vehicle: saline with Tween-80.
The mark [9] stands for this setting: endpoint: mean survival time, dose: 100.0 mg/kg/injection, schedule: Q01DX001 (ip), vehicle: saline with Tween-80.
Where [10] appears, read: endpoint: mean survival time, dose: 100.0 mg/kg/injection, schedule: Q01DX009 (ip), vehicle: saline with Tween-80.
[11] abbreviates: endpoint: mean survival time, dose: 200.0 mg/kg/injection, schedule: Q01DX009 (ip), vehicle: saline with Tween-80.

Values joined by “and” are separate entries in the source; they are usually repeats but may differ in a detail not shown here. Equal entries are not always repeated. Inconclusive results and toxic doses are left out.

Consider `NC(=S)N/N=C/c1ccc(OC(=O)COc2ccc(Cl)cc2)cn1`, for which the T/C runs as follows: (endpoint: mean survival time, dose: 88.0 mg/kg/injection, schedule: Q01DX009 (ip), vehicle: saline with Tween-80) 173 % of control; under setting [1], 103 % of control and 111 % of control; (endpoint: mean survival time, dose: 118.0 mg/kg/injection, schedule: Q01DX001 (ip), vehicle: saline with Tween-80) 109 % of control; (endpoint: mean survival time, dose: 118.0 mg/kg/injection, schedule: Q04DX003 (ip), vehicle: saline with Tween-80) 150 % of control; (endpoint: mean survival time, dose: 132.0 mg/kg/injection, schedule: Q01DX009 (ip), vehicle: saline with Tween-80) 214 % of control; (endpoint: mean survival time, dose: 178.0 mg/kg/injection, schedule: Q01DX001 (ip), vehicle: saline with Tween-80) 118 % of control. Moreover, the T/C (endpoint: mean survival time, dose: 178.0 mg/kg/injection, schedule: Q04DX003 (ip), vehicle: saline with Tween-80) was 166 % of control; the T/C under setting [2] is 114 % of control; the T/C (endpoint: mean survival time, dose: 266.0 mg/kg/injection, schedule: Q01DX001 (ip), vehicle: saline with Tween-80) was 123 % of control; the T/C (endpoint: mean survival time, dose: 266.0 mg/kg/injection, schedule: Q04DX003 (ip), vehicle: saline with Tween-80) was 170 % of control; the T/C (endpoint: mean survival time, dose: 300.0 mg/kg/injection, schedule: Q01DX009 (ip), vehicle: saline with Tween-80) was 93 % of control; the T/C under setting [3] is 181 % of control. Moreover, the T/C (endpoint: mean survival time, dose: 600.0 mg/kg/injection, schedule: Q04DX003 (ip), vehicle: saline with Tween-80) is 150 % of control; the T/C (endpoint: median survival time, dose: 25.0 mg/kg/injection, schedule: Q01DX009 (ip), vehicle: saline with Tween-80) was 164 % of control; the T/C (endpoint: median survival time, dose: 50.0 mg/kg/injection, schedule: Q01DX009 (ip), vehicle: saline with Tween-80) was 188 % of control; the T/C (endpoint: median survival time, dose: 50.0 mg/kg/injection, schedule: Q01DX009 (ip), vehicle: saline) is 172 % of control; the T/C (endpoint: median survival time, dose: 88.0 mg/kg/injection, schedule: Q01DX009 (ip), vehicle: saline with Tween-80) was 178 % of control; the T/C (endpoint: median survival time, dose: 100.0 mg/kg/injection, schedule: Q01DX009 (ip), vehicle: saline with Tween-80) is 175 % of control and 180 % of control. Besides, the T/C (endpoint: median survival time, dose: 100.0 mg/kg/injection, schedule: Q01DX009 (ip), vehicle: saline) was 209 % of control; the T/C (endpoint: median survival time, dose: 133.0 mg/kg/injection, schedule: Q01DX009 (ip), vehicle: saline with Tween-80) is 178 % of control; the T/C (endpoint: median survival time, dose: 200.0 mg/kg/injection, schedule: Q01DX009 (ip), vehicle: saline with Tween-80) is 182 % of control and 184 % of control and 213 % of control; the T/C (endpoint: median survival time, dose: 200.0 mg/kg/injection, schedule: Q01DX009 (ip), vehicle: saline) was 172 % of control; the T/C (endpoint: median survival time, dose: 300.0 mg/kg/injection, schedule: Q01DX009 (ip), vehicle: saline with Tween-80) was 102 % of control; the T/C (endpoint: median survival time, dose: 400.0 mg/kg/injection, schedule: Q01DX009 (ip), vehicle: saline with Tween-80) was 108 % of control. Besides, the T/C (endpoint: median survival time, dose: 400.0 mg/kg/injection, schedule: Q01DX009 (ip), vehicle: saline) was 97 % of control.

Consider `O=C(CC(SCCN1CCOCC1)c1ccc([N+](=O)[O-])cc1)c1ccccc1` (stereo not given), for which the T/C under setting [4] is 104 % of control, the T/C under setting [5] was 96 % of control and the T/C under setting [6] was 107 % of control.

`COc1ccc2c(ccc3cc(OC)ccc32)c1`: the T/C is, setting by setting: (endpoint: mean survival time, dose: 50.0 mg/kg/injection, schedule: Q04DX002 (ip), vehicle: saline with Tween-80) 93 % of control; under setting [1], 100 % of control; under setting [2], 93 % of control.

Take `CN(C)Nc1cc(N)c(N=Nc2ccccc2)c(=O)[nH]1`: the T/C by setting is: under setting [4], 107 % of control; under setting [5], 97 % of control; under setting [6], 117 % of control.

`Cc1cc(N)c(C)c([N+](=O)[O-])c1`: the T/C reads like this: under setting [7], 103 % of control; under setting [8], 101 % of control; under setting [3], 92 % of control.

In the case of `CCCCOP(=O)(NCCOC)OCCCC`, the T/C is, setting by setting: under setting [7], 101 % of control; under setting [8], 100 % of control; under setting [3], 103 % of control.

Turning to `CC(=O)OC1C(OC(C)=O)C(OC(C)=O)C2OC(C)(C)OC2C1OC(C)=O` (stereo not given), the T/C is 96 % of control (endpoint: mean survival time, dose: 100.0 mg/kg/injection, schedule: Q01DX009 (ip), vehicle: Klucel (hydroxypropylcellulose) (HPC)); 93 % of control (endpoint: mean survival time, dose: 200.0 mg/kg/injection, schedule: Q01DX009 (ip), vehicle: Klucel (hydroxypropylcellulose) (HPC)); 100 % of control (endpoint: mean survival time, dose: 400.0 mg/kg/injection, schedule: Q01DX009 (ip), vehicle: Klucel (hydroxypropylcellulose) (HPC)).

For `COC(=O)c1ccc(O)c([N+](=O)[O-])c1`, the T/C by setting is: under setting [7], 104 % of control; under setting [8], 93 % of control.

Turning to `CCOC(=O)C1C(=O)N(C)C(=O)N1Cc1ccccc1` (stereo not given), the T/C is 93 % of control (endpoint: mean survival time, dose: 12.5 mg/kg/injection, schedule: Q01DX009 (ip), vehicle: other); 89 % of control (endpoint: mean survival time, dose: 25.0 mg/kg/injection, schedule: Q01DX009 (ip), vehicle: other); 101 % of control (endpoint: mean survival time, dose: 50.0 mg/kg/injection, schedule: Q01DX009 (ip), vehicle: other); 101 % of control (endpoint: mean survival time, dose: 100.0 mg/kg/injection, schedule: Q01DX009 (ip), vehicle: other); 101 % of control (endpoint: mean survival time, dose: 200.0 mg/kg/injection, schedule: Q01DX009 (ip), vehicle: other).

For `CN(C)/C=C1\Cc2ccccc2C1=O`, the T/C (endpoint: mean survival time, dose: 25.0 mg/kg/injection, schedule: Q01DX001 (ip), vehicle: saline with Tween-80) was 95 % of control; the T/C (endpoint: mean survival time, dose: 50.0 mg/kg/injection, schedule: Q01DX001 (ip), vehicle: saline with Tween-80) was 92 % of control; the T/C under setting [9] is 90 % of control.

For `O=C(CCc1ccc(O)cc1)N/N=C/c1ccc2c(c1)OCO2`, the T/C by setting is: under setting [7], 90 % of control; under setting [8], 90 % of control; under setting [3], 88 % of control.

As for `Cn1c(=O)c2c(ncn2C(C(N)=O)C(N)=O)n(C)c1=O`, the T/C runs as follows: (endpoint: mean survival time, dose: 200.0 mg/kg/injection, schedule: Q01DX005 (ip), vehicle: distilled water + Tween-80) 106 % of control; (endpoint: mean survival time, dose: 400.0 mg/kg/injection, schedule: Q01DX005 (ip), vehicle: distilled water + Tween-80) 100 % of control.

For `CC1C(=O)OC2C1CCC1(C)C=CC(=O)C3(C)OC213` (stereo not given), the T/C was 108 % of control and 104 % of control under setting [1]; 108 % of control and 124 % of control under setting [2]; 120 % of control (endpoint: mean survival time, dose: 400.0 mg/kg/injection, schedule: Q04DX002 (ip), vehicle: saline with Tween-80).

As to `CC1(C)COC(c2ccc(-c3ccc(C4=NC(C)(C)CO4)cc3)cc2)=N1`, the T/C reads like this: under setting [9], 105 % of control; (endpoint: mean survival time, dose: 200.0 mg/kg/injection, schedule: Q01DX001 (ip), vehicle: saline with Tween-80) 100 % of control; (endpoint: mean survival time, dose: 400.0 mg/kg/injection, schedule: Q01DX001 (ip), vehicle: saline with Tween-80) 100 % of control.

For the compound `CC(C)c1ccc(C2CCCCC2O)cc1` (stereo not given), the T/C under setting [10] is 89 % of control; the T/C under setting [7] was 105 % of control; the T/C under setting [11] is 92 % of control; the T/C under setting [8] was 91 % of control; the T/C under setting [3] was 94 % of control.

For the compound `Cc1ccc2c(c1)N=C(Nc1ccccc1)N=S2(C)=O` (stereo not given), the T/C (endpoint: mean survival time, dose: 6.25 mg/kg/injection, schedule: Q01DX009 (ip), vehicle: saline with Tween-80) was 96 % of control and 104 % of control; the T/C (endpoint: mean survival time, dose: 12.5 mg/kg/injection, schedule: Q01DX009 (ip), vehicle: saline with Tween-80) was 100 % of control and 107 % of control; the T/C (endpoint: mean survival time, dose: 25.0 mg/kg/injection, schedule: Q01DX009 (ip), vehicle: saline with Tween-80) is 104 % of control; the T/C (endpoint: mean survival time, dose: 50.0 mg/kg/injection, schedule: Q01DX009 (ip), vehicle: saline with Tween-80) is 90 % of control and 106 % of control; the T/C under setting [10] is 101 % of control; the T/C under setting [11] is 102 % of control.

As to `O=c1nc(NC2CCCCCCCCCCC2)ccn1C1OC(CO)C(O)C1O` (stereo not given), the T/C was 101 % of control (endpoint: median survival time, dose: 12.5 mg/kg/injection, schedule: Q01DX005 (ip), vehicle: distilled water + Tween-80); 102 % of control (endpoint: median survival time, dose: 25.0 mg/kg/injection, schedule: Q01DX005 (ip), vehicle: distilled water + Tween-80); 105 % of control (endpoint: median survival time, dose: 50.0 mg/kg/injection, schedule: Q01DX005 (ip), vehicle: distilled water + Tween-80); 93 % of control (endpoint: median survival time, dose: 100.0 mg/kg/injection, schedule: Q01DX005 (ip), vehicle: distilled water + Tween-80); 86 % of control (endpoint: median survival time, dose: 200.0 mg/kg/injection, schedule: Q01DX005 (ip), vehicle: distilled water + Tween-80).

The values are drawn from PubChem BioAssay AID256 (DTP/NCI, 2004).
